Measurements reported in US12539307B2, “Oral cannabinoid formulation comprising tocopheryl phosphates and long chain triglycerides or long chain fatty acids” (AVECHO BIOTECHNOLOGY LIMITED, priority 2020, dated 2026).

Tests used:
[1] = In vivo bioavailability (pk study) after a single oral gavage; design: species or system Sprague-Dawley rats; conditions: rats
Procedure: Male Sprague-Dawley rats (301-353 g at the time of the study) are acclimatized for a minimum of seven days on standard feed with free access to water. The rats are housed under controlled environmental parameters (temperature: 22.1° C., relative humidity: 57%), and with reversed light cycle (12 h/12 h).
The formulations are administered to each rat by oral gavage with a polyurethane feeding tube (Instech Laboratories Inc., Plymouth Meeting, USA). Blood samples (200 μL) are collected from the tail vein before dosing and at 0, 0.5, 1, 2, 4, 6, and 8 h after dosing. After the 6 h blood sample, the rats were given access to standard feed. At 23 h, the rats are euthanized by gassing and a blood sample is withdrawn from the heart immediately after. All blood samples were collected in ethylenediaminetetraacetic acid (EDTA) tripotassium salt dihydrate coated tubes (Sarstedt, Helsingborg, Sweden), and centrifuged at 10,000 RPM for 10 min. After centrifugation, the plasma was transferred to polypropylene microtubes and stored at −20° C. until LC-MS analysis.

[2] = In-vitro rat lipolysis: simulated rat gastric (0-30 min) and intestinal (30-90 min) digestion; format: in vitro ADME
Procedure: FIG. 4. CBD solubility in-vitro in simulated gastric (0-30 min) and intestinal (30-90 min) conditions. Group 1: MCT. Group 2: 50 mg/ml TPM in MCT. Group 3: 100 mg/ml TPM in MCT. Group 4: 100 mg/ml TPM in 1:1 MCT/Maisine CC. Group 5: 200 mg/ml TPM in 1:1 MCT/Maisine CC.
Further in-vitro lipolysis experiments were conducted to investigate CBD dispersibility and solubility in a model of the gastric and intestinal spaces. The effect of TPM and the formulation vehicle was assessed by comparison to CBD dissolved in an MCT vehicle at 100 mg/ml. A rat gastric-intestinal model was selected in order to have best correlation with a subsequent in-vivo pk study in rats.
The in vitro lipolysis experiment simulated rat gastrointestinal conditions. The dispersion study was done in a lipolysis vessel containing simulated rat gastric medium at pH 2.4 and the gastric digestion of the formulations was assessed during 30 min. Afterwards, a concentrated bile buffer together with pancreatin was added to the gastric medium leading to the final concentrations which simulated the rat intestinal conditions. Subsequently, lipid digestion and drug solubilization was evaluated for 60 min.

[3] = In vitro intestinal digestion of carrier oil in fasted media (pH 6.5): solubilisation of CBD; format: in vitro ADME; conditions: with TPM
Procedure: FIG. 1—Solubilisation of CBD during in vitro intestinal digestion of carrier oil (MCT, LCT/LCFA, or a mixture of MCT:LCT/LCFA) in fasted media (pH 6.5). Total lipid was 110 mg (100 mg carrier oil+10 mg CBD). Data are mean±SD, n=3. A. CBD concentration (mg) during digestion in MCT. B. CBD concentration (mg) during digestion in LCT/LCFA (Maisine CC). C. CBD concentration (mg) during digestion in a mixture of MCT:LCT/LCFA (Maisine CC)
FIG. 2—Solubilisation of CBD in the presence of TPM during in vitro gastro-intestinal digestion of carrier oil (MCT, LCT/LCFA, or a mixture of MCT:LCT/LCFA) in fasted media. Total lipid was 110 mg (80-90 mg carrier oil+10 mg CBD+10-20 mg TPM). Data are mean±SD, n=3. A. CBD concentration (mg) during digestion in MCT with TPM. B. CBD concentration (mg) during digestion in LCT/LCFA (Maisine CC) with TPM. C. CBD concentration (mg) during digestion in a mixture of MCT:LCT/LCFA (Maisine CC) with TPM.
FIG. 3—Solubilisation of CBD in the presence of TPM during in vitro digestion of carrier oil (MCT, LCT/LCFA, or a mixture of MCT:LCT/LCFA) in fasted media (pH 6.5). Total lipid was 110 mg (80-90 mg carrier oil+10 mg CBD+10-20 mg TPM). Data are mean±SD, n=3. A. CBD concentration (mg) during digestion in 3:1 MCT:LCT/LCFA, with TPM. B. CBD concentration (mg) during digestion in 1:1 MCT:LCT/LCFA, with TPM. C. CBD concentration (mg) during digestion in 1:3 MCT:LCT/LCFA, with TPM.
In vitro digestion experiments were carried out to determine whether TPM in various carrier oils could increase the intestinal aqueous solubility of CBD. These experiments utilised a model of digestion in an intestinal environment at a pH of about 6.5. From the model, one can make determinations regarding the likely solubility of CBD or other cannabinoids such as THC in an aqueous intestinal fluid.

SMILES: C=C(C)[C@@H]1CCC(C)=C[C@H]1c1c(O)cc(CCCCC)cc1O [CBD, cannabidiol]
- increase of mean Cmax relative to control CBD formulation in MCT alone ([1]; addition of 50 mg/ml TPM to MCT carrier): ~5 ×
- increase of mean Cmax relative to control CBD formulation in MCT alone ([1]; addition of 100 mg/ml TPM to MCT carrier): ~14 times
- increase of mean Cmax relative to control CBD formulation in MCT alone ([1]; addition of 100 mg/ml TPM to MCT:LCT/LCFA carrier): ~30 ×
- increase of mean Cmax relative to control CBD formulation in MCT alone ([1]; addition of 200 mg/ml TPM to MCT:LCT/LCFA carrier): ~40 times
- dispersibility and solubility of CBD in simulated gastric and intestinal spaces ([2]; addition of TPM to MCT containing CBD (100 mg/ml)): increased
- dispersibility and solubility of CBD in the intestinal space ([2]; addition of TPM to MCT:LCT/LCFA vehicles containing CBD (100 mg/ml)): increased
- aqueous CBD solubility during digestion, by MCT:LCT/LCFA ratio ([3]; vehicle 1:1 MCT:LCT/LCFA): best increase
- aqueous CBD solubility during digestion, by MCT:LCT/LCFA ratio ([3]; vehicle 1:3 MCT:LCT/LCFA, also significant CBD in immiscible oil phase): slight increase
- aqueous CBD solubility during digestion, by MCT:LCT/LCFA ratio ([3]; vehicle 3:1 MCT:LCT/LCFA): CBD precipitation
